Values of other authors, collected in patent US9445901B2, “Prosthesis with sustained release analgesic” (priority 2003, dated 2016).
Structures can show the parent of a compound that is named as a salt.

Conditions: man, after injection for caudal, epidural or peripheral nerve block

SMILES: CCCCN1CCCCC1C(=O)Nc1c(C)cccc1C (centres unmarked) [Marcaine, bupivacaine hydrochloride]
- decline of blood levels after the peak: decline to insignificant levels during the next three to six hours
- time to peak levels of bupivacaine in the blood: 30 to 45 min
